Results published in patent publication US9440941B2, “Substituted chroman-6-yloxy-cycloalkanes and their use as pharmaceuticals” (SANOFI, priority 2013, dated 2016).
pIC50: −log10 of the molar value.

Legend:
Sprague-Dawley rats = assay: In vivo method for determining the effect on heart contractility (left ventricular dp/dtmax); design: species or system rat; conditions: anesthetized male Sprague-Dawley rats, intravenous, vs solvent control
Experimental: B) In Vivo Method for Determining the Effect on Heart Contractility
Adult male Sprague-Dawley rats (Harlan Winkelmann, Borchen, Germany) weighing 340 to 370 g were anesthetized with pentobarbital (100 mg/kg i.p.) and ventilated with a mixture of oxygen (40%) and room air (60%) at a tidal volume of 1 ml/100 g at 60 breaths/min. Body temperature was maintained at 36.5±0.3° C. with a heating lamp and was monitored with a rectal thermo sensor. Systemic blood pressure was measured in the left carotid artery using a pressure transducer (Combitrans; B. Braun Melsungen AG, Melsungen, Germany) connected to a DC-bridge-amplifier (PLUGSYS/ADC Type 663; Harvard Apparatus GmbH, March-Hugstetten, Germany). The electrocardiogram was measured as lead II via subcutaneously placed electrodes connected to a Heart-Rate-Module (PLUGSYS/HRM Type 669; Harvard Apparatus GmbH, March-Hugstetten, Germany). A micro-tip catheter (2 French, SPR-320; Millar Instruments, Houston, Tex., USA) was placed via the right carotid artery into the left ventricle, and the left ventricular pressure (LVP) and the enddiastolic pressure (EDP) were continuously measured. Registration of the hemodynamic data was performed via an analog digital converter by a personal computer using Notocord software (HEM version 3.5). Left ventricular contractility (dp/dtmax) and relaxation (dp/dtmin) were calculated from the LVP signal. For intravenous administration of the test compounds, the left jugular vein was prepared and a PP-50 catheter was inserted. Test compounds were administered either by intravenous bolus injection or by intravenous infusion by means of an infusion pump (Unita; B. Braun Melsungen AG, Melsungen, Germany). Test compounds were dissolved in a mixture of Glycofurol (75%) and Cremophor (25%), and the solution was further diluted with distilled water (1:4). In a typical experiment, several dosages of the test compound were administered subsequently at increasing doses. Statistical significance of the data obtained with drug vs control experiments, in which solvent was administered, was evaluated with the 2-sided ANOVA test (program Everstat). Increases in left ventricular contractility (percent increase) by example compounds are given in Table 3 in comparison to control experiments in which solvent was administered.

human NCX1 = target: T1, human NCX1 (Homo sapiens, UniProt P32418); assay: Inhibition of Ca2+ influx into cells (NCX1 reverse mode), FLIPR Fluo-4 assay; assay type: cell-based; conditions: inhibition of NCX1 in reverse mode (Ca2+ influx into cells); read-out: NCX1rv IC50
T1 construct: expressed in transfected cells
Procedure, shortened: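 CHO cells stably expressing human NCX1, loaded with Fluo-4 AM, preincubated with compound 45 min at 16 °C in pH 7.4 buffer (3.5 mM CaCl2). Reverse mode triggered by 20 µM gramicidin (final); Fluo-4 fluorescence read at 520 nm every 2 s. IC50 from percentage inhibition of max-minus-min fluorescence.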

SMILES: Cc1ccccc1C1CCc2cc(O[C@H]3CC[C@H](N)CC3)ccc2O1.Cl (stereo partly drawn) [Example 156, trans-4-(2-o-Tolyl-chroman-6-yloxy)-cyclohexylamine]
- Contractility increase (left ventricular contractility) (Sprague-Dawley rats; 0.1 mg/kg): 44%
- Contractility increase (left ventricular contractility) (Sprague-Dawley rats; 0.3 mg/kg): 110%
- Contractility increase (left ventricular contractility) (Sprague-Dawley rats; 1.0 mg/kg): 171%
- pIC50 (human NCX1): 6.22

SMILES: Cc1ccccc1C1CCc2cc(OC3CCC(C(=O)NCc4ccno4)CC3)ccc2O1 (stereo not shown) [Example 158, N-(Isoxazol-5-ylmethyl)-4-(2-o-tolyl-chroman-6-yloxy)-cyclohexanecarboxamide]
- Contractility increase (left ventricular contractility) (Sprague-Dawley rats; 0.1 mg/kg): 106%
- Contractility increase (left ventricular contractility) (Sprague-Dawley rats; 0.3 mg/kg): 139%
- Contractility increase (left ventricular contractility) (Sprague-Dawley rats; 1.0 mg/kg): 146%
- pIC50 (human NCX1): 6.40

SMILES: NCC(=O)N[C@H]1CC[C@H](Oc2ccc3c(c2)CC[C@@H](c2ccccc2)O3)CC1 [Example 159, 2-Amino-N-[trans-4-((S)-2-phenyl-chroman-6-yloxy)-cyclohexyl]-acetamide]
- Contractility increase (left ventricular contractility) (Sprague-Dawley rats; 0.1 mg/kg): 46%
- Contractility increase (left ventricular contractility) (Sprague-Dawley rats; 0.3 mg/kg): 104%
- Contractility increase (left ventricular contractility) (Sprague-Dawley rats; 1.0 mg/kg): 140%
- pIC50 (human NCX1): 6.70

SMILES: Cc1ccccc1C1CCc2cc(OC3CCC(NCc4c(C)nn(C)c4C)CC3)ccc2O1 (stereo not shown) [Example 177, 4-(2-o-Tolyl-chroman-6-yloxy)-N-(1,3,5-trimethylpyrazol-4-ylmethyl)-cyclohexylamine]
- Contractility increase (left ventricular contractility) (Sprague-Dawley rats; 0.1 mg/kg): 29%
- Contractility increase (left ventricular contractility) (Sprague-Dawley rats; 0.3 mg/kg): 81%
- Contractility increase (left ventricular contractility) (Sprague-Dawley rats; 1.0 mg/kg): 134%
- pIC50 (human NCX1): 5.49

SMILES: O=C(N[C@H]1CC[C@H](Oc2ccc3c(c2)CCC(c2ccccc2)O3)CC1)[C@@H]1CCCN1 (stereo partly drawn) [Example 180, (S)—N-[trans-4-(2-Phenyl-chroman-6-yloxy)-cyclohexyl]-pyrrolidine-2-carboxamide]
- Contractility increase (left ventricular contractility) (Sprague-Dawley rats; 0.1 mg/kg): 26%
- Contractility increase (left ventricular contractility) (Sprague-Dawley rats; 0.3 mg/kg): 66%
- Contractility increase (left ventricular contractility) (Sprague-Dawley rats; 1.0 mg/kg): 99%
- pIC50 (human NCX1): 6.10

SMILES: Cc1ccccc1[C@@H]1CCc2cc(O[C@H]3CC[C@H](C(=O)NCCO)CC3)ccc2O1 [Example 268, trans-4-((S)-2-o-tolyl-chroman-6-yloxy)-cyclohexanecarboxylic acid (2-hydroxy-ethyl)-amide]
- Contractility increase (left ventricular contractility) (Sprague-Dawley rats; 0.1 mg/kg): 108%
- Contractility increase (left ventricular contractility) (Sprague-Dawley rats; 0.3 mg/kg): 154%
- Contractility increase (left ventricular contractility) (Sprague-Dawley rats; 1.0 mg/kg): 179%
- pIC50 (human NCX1): 6.82

SMILES: Cc1ccccc1[C@@H]1CCc2cc(O[C@H]3CC[C@H](C(=O)NCCOP(=O)([O-])[O-])CC3)ccc2O1.[Na+].[Na+] [Example 303, Phosphoric acid mono-(2-{[trans-4-((S)-2-o-tolyl-chroman-6-yloxy)-cyclohexanecarbonyl]-amino}-ethyl) ester disodium salt]
- Contractility increase (left ventricular contractility) (Sprague-Dawley rats; 0.1 mg/kg): 69%
- Contractility increase (left ventricular contractility) (Sprague-Dawley rats; 0.3 mg/kg): 114%
- Contractility increase (left ventricular contractility) (Sprague-Dawley rats; 1.0 mg/kg): 172%
- pIC50 (human NCX1): 7.00
